Reference: patent US20230257376A1, “ROCK INHIBITOR, AND PREPARATION METHOD THEREFOR AND USE THEREOF” (WUHAN LL SCIENCE AND TECHNOLOGY DEVELOPMENT CO., LTD., priority 2020, published 2023)

Experiments:
[1] = In vitro cytotoxicity assay in HepG2 cells using the CCK-8 method; assay type: cell-based; settings: human
Procedure: In vitro cytotoxicity assay for the compounds disclosed herein was performed in HepG2 cells using the CCK-8 method. HepG2 cells (Beina Bio) in the logarithmic growth phase were collected, the concentration of cell suspension was adjusted, and then the cells were plated on a 96-well cell culture plate at 50,000 cells/well. The cells were then incubated overnight in a cell incubator (5%, 37° C.), and after 80-90% cell confluence was achieved, test compound at each concentration gradient or vehicle (DMSO) was added after medium change. The resulting mixture was incubated in the cell incubator (5%, 37° C.) for 48 h. After the treatment, the medium in the plate was discarded. The plate was washed twice with PBS, added with CCK-8 working solution (Beyotime) at 100 μL per well, and then incubated at 37° C. for 1.5 h in the dark. Absorbance at OD450 nm mil was measured for each well on a microplate reader, and CC50 value of each compound was analyzed and calculated.

ROCK2 kinase = biological target: T1, ROCK2 kinase (Homo sapiens, UniProt O75116); assay: In vitro evaluation of ROCK2 kinase activity (HTRF KinEASE-STK time-resolved fluorometric assay); assay type: biochemical; settings: ROCK2 kinase 0.4 ng/μL, ATP 6.739 μM
T1 construct: purchased Invitrogen PV3759
Procedure: ROCK2 activity screening. ROCK2 activity was detected using a 96-well (Cisbio) time-resolved fluorometric assay. The assay for ROCK2 was performed in the following assay buffer: 5 mM MgCl2 (Sigma), 1 mM DTT (Sigma) and 1× kinase buffer. The kinase buffer was used for dilution. 7.5 μL of ROCK2 kinase (Invitrogen, PV3759) was added to a 96-well microplate to reach a final concentration of 0.4 ng/μL, and then 0.25 μL of test compound (DMSO content: 1% (volume fraction)) was added. The mixture was incubated at room temperature for 0.5 h. To start the reaction, the kinase buffer was used to mix ATP (Aladdin) and the substrate STK-substrate 2-biotin. 7.5 μL of the mixed solution was added to the microplate to reach final concentrations of 6.739 μM and 1 μM. The resulting mixture was incubated at room temperature for 2 h. 5 mL of detection buffer was mixed with STK antibody-Cryptate, and then an appropriate volume of the mixture was mixed with an equal volume of streptavidin-XL665. 10 μL of the resulting mixture was added to the microplate to stop the reaction. After further incubation for about 1 h, the microplate was read on a Molecular Devices SpectraMax i3x multifunctional microplate reader. The kinase buffer, the STK-substrate 2-biotin, the detection buffer, the STK antibody-Cryptate, and the streptavidin-XL665 were all from HTRF KinEASE-STK kit (Cisbio, 1000 tests, 61GSTXLA).

[2] = In vitro metabolic stability, human liver microsome incubation; assay type: in vitro ADME; settings: liver microsomes, 1 mg/mL protein, 37° C., read-out: T1/2 in human liver microsome
Procedure: (§1) The in vitro metabolic stability of the compounds disclosed herein was determined through incubation of liver microsomes of various species. A proper amount of test compound was added into a liver microsome reaction system (1 mg/mL liver microsome protein, 25 U/mL glucose-6 phosphate dehydrogenase, 1 mM NADP, 6 mM D-glucose 6-phosphate and 5 mM MgCl2), and then the mixture was incubated in a water bath kettle at 37° C. to start reaction. At each time point, 100 μL of the reaction liquid was added into a centrifuge tube containing 400 μL of internal standard working solution (containing a 200 ng/mL solution of dexamethasone, diclofenac, tolbutamide and labetalol in acetonitrile) precooled at 0° C. so as to stop the reaction, and the mixture was then centrifuged at 10,000 g for 10 min at 4° C. The supernatant was collected for LC-MS assay so as to obtain the values of in vitro metabolic half-life of the test compounds in liver microsomes of various species.

[3] = In vitro metabolic stability, rat liver microsome incubation; assay type: in vitro ADME; settings: liver microsomes, 1 mg/mL protein, 37° C., read-out: T1/2 in rat liver microsome
Procedure: as §1

ROCK1 kinase = biological target: T2, ROCK1 kinase (Homo sapiens, UniProt Q13464); assay: In vitro evaluation of ROCK1 kinase selectivity (HTRF KinEASE-STK time-resolved fluorometric assay); assay type: biochemical; settings: ROCK1 kinase 0.4 ng/μL, ATP 3.53 μM
T2 construct: purchased Invitrogen
Procedure: ROCK1 activity was detected using a 96-well (Cisbio) time-resolved fluorometric assay. The assay for ROCK1 was performed in the following assay buffer: 5 mM MgCl2 (Sigma), 1 mM DTT (Sigma) and 1× kinase buffer. The kinase buffer was used for dilution. 7.5 μL of ROCK1 kinase (Invitrogen) was added to a 96-well microplate to reach a final concentration of 0.4 ng/μL, and then 0.25 μL of test compound (DMSO content: 1%) was added. The mixture was incubated at room temperature for 0.5 h. To start the reaction, the kinase buffer was also used to mix ATP (Aladdin) and the substrate STK-substrate 2-biotin. 7.5 μL of the mixed solution was added to the microplate to reach final concentrations of 3.53 μM and 1 μM. The resulting mixture was incubated at room temperature for 2 h. 5 mL of detection buffer was mixed with STK antibody-Cryptate, and then an appropriate volume of the mixture was mixed with an equal volume of streptavidin-XL665. 10 μL of the resulting mixture was added to stop the reaction. After further incubation for about 1 h, the microplate was read on a Molecular Devices SpectraMax i3x multifunctional microplate reader. The kinase buffer, the STK-substrate 2-biotin, the detection buffer, the STK antibody-Cryptate, and the streptavidin-XL665 were all from HTRF KinEASE-STK kit (Cisbio, 1000 tests, 61GSTXLA).

[4] = In vivo pharmacokinetic study in mice; settings: mouse, plasma; for bioavailability: 1 mg/kg Po (fasted) vs 1 mg/kg Iv; for AUC(0-t) / Cmax: 1 mg/kg
Excerpt: […] After administration, plasma of mice was collected at specific time points, and the concentration of the compound in the plasma was detected by LC-MS/MS (AB SCIEX Qtrap4500). The PK parameters of the compounds were statistically analyzed and calculated (WinNonlin V5.2, Pharsight) to show the pharmacokinetic properties of the compounds disclosed herein in mice.

[5] = In vitro metabolic stability, guinea pig liver microsome incubation; assay type: in vitro ADME; settings: liver microsomes, 1 mg/mL protein, 37° C., read-out: T1/2 in guinea pig liver microsome
Procedure: as §1

T2 sequence (Q13464 whole entry): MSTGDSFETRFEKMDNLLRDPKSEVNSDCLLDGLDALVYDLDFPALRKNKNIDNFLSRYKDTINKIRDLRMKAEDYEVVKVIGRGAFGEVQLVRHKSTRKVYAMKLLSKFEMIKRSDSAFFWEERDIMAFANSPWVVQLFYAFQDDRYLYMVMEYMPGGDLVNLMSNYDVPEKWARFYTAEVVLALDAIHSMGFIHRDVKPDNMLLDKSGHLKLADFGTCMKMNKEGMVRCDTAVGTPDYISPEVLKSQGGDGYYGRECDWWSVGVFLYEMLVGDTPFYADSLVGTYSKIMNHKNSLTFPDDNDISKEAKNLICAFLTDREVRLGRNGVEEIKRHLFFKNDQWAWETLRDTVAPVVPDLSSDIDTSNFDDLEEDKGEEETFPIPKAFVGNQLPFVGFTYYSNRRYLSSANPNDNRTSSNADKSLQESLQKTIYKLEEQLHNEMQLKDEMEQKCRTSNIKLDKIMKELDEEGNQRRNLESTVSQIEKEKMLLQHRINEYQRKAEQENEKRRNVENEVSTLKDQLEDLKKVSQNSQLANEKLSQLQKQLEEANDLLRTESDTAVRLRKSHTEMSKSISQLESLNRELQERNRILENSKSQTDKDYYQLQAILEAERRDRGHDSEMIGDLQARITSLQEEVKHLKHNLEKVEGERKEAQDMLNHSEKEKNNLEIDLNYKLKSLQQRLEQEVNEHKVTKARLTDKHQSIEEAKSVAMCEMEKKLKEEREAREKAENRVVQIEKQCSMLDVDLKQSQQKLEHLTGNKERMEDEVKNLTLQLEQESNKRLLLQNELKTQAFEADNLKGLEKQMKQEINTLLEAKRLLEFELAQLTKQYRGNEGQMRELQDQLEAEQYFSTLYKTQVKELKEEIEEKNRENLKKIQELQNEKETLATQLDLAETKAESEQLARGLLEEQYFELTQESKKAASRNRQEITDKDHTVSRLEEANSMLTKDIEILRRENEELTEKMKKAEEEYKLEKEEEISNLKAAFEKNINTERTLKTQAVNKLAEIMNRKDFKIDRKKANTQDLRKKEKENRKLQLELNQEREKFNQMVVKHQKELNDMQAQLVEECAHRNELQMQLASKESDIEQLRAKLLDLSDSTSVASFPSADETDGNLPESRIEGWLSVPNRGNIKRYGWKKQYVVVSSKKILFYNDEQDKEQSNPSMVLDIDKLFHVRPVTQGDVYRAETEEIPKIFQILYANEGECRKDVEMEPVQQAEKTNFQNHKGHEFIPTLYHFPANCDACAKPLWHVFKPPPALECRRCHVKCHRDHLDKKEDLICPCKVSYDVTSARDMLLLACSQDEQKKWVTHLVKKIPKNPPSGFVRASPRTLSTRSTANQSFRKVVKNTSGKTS
T1 sequence (O75116 whole entry): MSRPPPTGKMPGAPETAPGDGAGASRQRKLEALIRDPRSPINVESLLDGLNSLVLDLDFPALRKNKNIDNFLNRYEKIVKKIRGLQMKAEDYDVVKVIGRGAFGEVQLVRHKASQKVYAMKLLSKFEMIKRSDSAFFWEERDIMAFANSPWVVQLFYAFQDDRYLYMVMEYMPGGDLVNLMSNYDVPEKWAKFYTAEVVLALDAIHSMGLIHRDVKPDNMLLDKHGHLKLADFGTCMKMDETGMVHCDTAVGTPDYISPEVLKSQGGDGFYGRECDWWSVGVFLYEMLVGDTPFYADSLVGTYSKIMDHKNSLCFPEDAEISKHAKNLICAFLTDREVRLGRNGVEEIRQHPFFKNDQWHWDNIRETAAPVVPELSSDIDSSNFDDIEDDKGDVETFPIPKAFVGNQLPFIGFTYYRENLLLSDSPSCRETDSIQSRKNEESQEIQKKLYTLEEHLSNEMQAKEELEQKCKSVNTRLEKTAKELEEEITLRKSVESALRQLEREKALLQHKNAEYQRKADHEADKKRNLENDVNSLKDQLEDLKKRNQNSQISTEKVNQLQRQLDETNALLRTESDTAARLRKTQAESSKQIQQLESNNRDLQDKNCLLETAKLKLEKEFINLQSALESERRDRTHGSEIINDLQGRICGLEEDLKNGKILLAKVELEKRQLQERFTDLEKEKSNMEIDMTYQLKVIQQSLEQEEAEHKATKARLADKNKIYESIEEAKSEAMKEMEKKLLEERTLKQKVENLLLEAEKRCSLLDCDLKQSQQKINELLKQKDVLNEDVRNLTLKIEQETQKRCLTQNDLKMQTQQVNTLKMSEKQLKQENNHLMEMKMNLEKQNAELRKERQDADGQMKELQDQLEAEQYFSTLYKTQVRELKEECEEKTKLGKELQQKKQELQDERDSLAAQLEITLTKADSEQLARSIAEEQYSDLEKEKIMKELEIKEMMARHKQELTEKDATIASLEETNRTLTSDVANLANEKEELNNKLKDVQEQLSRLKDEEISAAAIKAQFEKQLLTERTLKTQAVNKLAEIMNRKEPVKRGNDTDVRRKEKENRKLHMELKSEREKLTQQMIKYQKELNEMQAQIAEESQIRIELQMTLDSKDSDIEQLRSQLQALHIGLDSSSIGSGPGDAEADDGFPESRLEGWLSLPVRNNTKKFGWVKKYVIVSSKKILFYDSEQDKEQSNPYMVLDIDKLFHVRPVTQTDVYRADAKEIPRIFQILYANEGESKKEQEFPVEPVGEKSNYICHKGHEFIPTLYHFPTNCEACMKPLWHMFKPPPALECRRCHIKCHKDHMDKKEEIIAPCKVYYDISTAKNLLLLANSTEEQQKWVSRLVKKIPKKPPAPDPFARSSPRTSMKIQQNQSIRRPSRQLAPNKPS

SMILES	CC50 at 48 h [1] [µM]	IC50 (ROCK2 kinase) [µM]	half-life [2] [h]	half-life [3] [h]	IC50 (ROCK1 kinase) [µM]	bioavailability [4] [%]	AUC(0-t) ([4]; Iv) [ng·h/mL]	Cmax ([4]; Iv) [ng/mL]	AUC(0-t) ([4]; Po (fasted)) [ng·h/mL]	Cmax ([4]; Po (fasted)) [ng/mL]	half-life [5] [h]
Cn1c(C(=O)N2CC(F)(F)C2)cc2c1CN(c1nccc(Nc3ccc(-c4cn[nH]c4)cc3)n1)CC2 [Compound L005, (6-(4-((4-(1H-pyrazol-4-yl)phenyl)amino)pyrimidin-2-yl)-1-methyl-4,5,6,7-tetrahydro-1H-pyrrolo[2,3-c]pyridin-2-yl)(3,3-difluoroazetidin-1-yl)methanone]	> 100	≤ 0.05	2.92	1.72	> 4.5	59.7	120	155	71.8	37.2	1.08
Cn1c(C(=O)NCC(F)(F)F)cc2c1CN(c1nccc(Nc3ccc(-c4cn[nH]c4)cc3)n1)CC2 [Compound L017, 6-(4-((4-(1H-pyrazol-4-yl)phenyl)amino)pyrimidin-2-yl)-1-methyl-N-(2,2,2-trifluoroethyl)-4,5,6,7-tetrahydro-1H-pyrrolo[2,3-c]pyridine-2-carboxamide]	33.4	≤ 0.05	3.11	1.21	> 4.5	12.2	872	2570	106	41.3	0.751
Cn1c(C(=O)N2CC(F)(F)C2)cc2c1CN(c1ncc(F)c(Nc3ccc(-c4cn[nH]c4)cc3)n1)CC2 [Compound L027, (6-(4-((4-(1H-pyrazol-4-yl)phenyl)amino)-5-fluoropyrimidin-2-yl)-1-methyl-4,5,6,7-tetrahydro-1H-pyrrolo[2,3-c]pyridin-2-yl)(3,3-difluoroazetidin-1-yl)methanone]	> 100	≤ 0.05	0.956	2.11	> 4.5	82.7	412	517	341	116	10.3
Cn1c(C(=O)OCC(F)(F)F)cc2c1CN(c1nccc(Nc3ccc(-c4cn[nH]c4)cc3)n1)CC2 [Compound L032, 2,2,2-trifluoroethyl 6-(4-((4-(1H-pyrazol-4-yl)phenyl)amino)pyrimidin-2-yl)-1-methyl-4,5,6,7-tetrahydro-1H-pyrrolo[2,3-c]pyridine-2-carboxylate]	28.4	0.05 to 0.5	1.35	0.708	> 4.5						0.563
Cn1c(C(=O)N2CC(C(F)(F)F)C2)cc2c1CN(c1nccc(Nc3ccc(-c4cn[nH]c4)cc3)n1)CC2 [Compound L033]	> 100	≤ 0.05	1.55	1.14	> 4.5						0.837
Cn1c(C(=O)N2CC(F)(F)C2)cc2c1CN(c1nncc(Nc3ccc(-c4cn[nH]c4)cc3)n1)CC2 [Compound L037, (6-(5-((4-(1H-pyrazol-4-yl)phenyl)amino)-1,2,4-triazin-3-yl)-1-methyl-4,5,6,7-tetrahydro-1H-pyrrolo(2,3-c)pyridin-2-yl)(3,3-difluoroazetidin-1-yl)methanone]	> 100	≤ 0.05	2.61	0.554	> 4.5						1
Cn1c(C(=O)N2CC(F)(F)C2)cc2c1CN(c1nc(C#N)cc(Nc3ccc(-c4cn[nH]c4)cc3)n1)CC2 [Compound L042]	27.9	0.05 to 0.5	7.3	5.75	> 4.5						5.81
Cc1nc(Nc2ccc(-c3cn[nH]c3)cc2)nc(N2CCc3cc(C(=O)N4CC(F)(F)C4)n(C)c3C2)n1 [Compound L044]	58.1	0.05 to 0.5	7.32	3.49		54.8	787	594	431	109	2.83
Cc1nc(Nc2ccc(-c3cn[nH]c3)cc2)nc(N2CCc3cc(C(=O)N4CC(C#N)C4)n(C)c3C2)n1 [Compound L050, 1-(6-(4-((4-(1H-pyrazol-4-yl)phenyl)amino)-6-methyl-1,3,5-triazin-2-yl)-1-methyl-4,5,6,7-tetrahydro-1H-pyrrolo[2,3-c]pyridin-2-carbonyl)azetidine-3-carbonitrile]	> 100	0.05 to 0.5	4.32	1.03	> 4.5						1.07
Cn1c(C(=O)N2CC(F)(F)C2)cc2c1CN(c1nc(CC#N)nc(Nc3ccc(-c4cn[nH]c4)cc3)n1)CC2 [Compound L051, 2-(4-((4-(1H-pyrazol-4-yl)phenyl)amino)-6-(2-(3,3-difluoroazetidin-1-carbonyl)-1-methyl-1,4,5,7-tetrahydro-6H-pyrrolo[2,3-c]pyridin-6-yl)-1,3,5-triazin-2-yl)acetonitrile]	> 100	0.05 to 0.5	4.82	1.08	> 4.5						0.84
Cn1c(C(=O)N2CC(C#N)C2)cc2c1CN(c1ncc(F)c(Nc3ccc(-c4cn[nH]c4)cc3)n1)CC2 [Compound L056, 1-(6-(4-((4-(1H-pyrazol-4-yl)phenyl)amino)-5-fluoropyrimidin-2-yl)-1-methyl-4,5,6,7-tetrahydro-1H-pyrrolo[2,3-c]pyridin-2-carbonyl)azetidine-3-carbonitrile]	> 100	≤ 0.05	1.01	0.879	> 4.5						0.701
Cn1c(C(=O)N2CC(F)(F)C2)cc2c1CN(c1nc(Nc3ccc(-c4cn[nH]c4)cc3)c3cccn3n1)CC2 [Compound L057, (6-(4-((4-(1H-pyrazol-4-yl)phenyl)amino)pyrrolo[2,1-f][1,2,4]triazin-2-yl)-1-methyl-4,5,6,7-tetrahydro-1H-pyrrolo[2,3-c]pyridin-2-yl)(3,3-difluoroazetidin-1-yl)methanone]	> 100	0.05 to 0.5	3.17	0.759	> 4.5						2.18
